Converted amounts (≈) assume the structure as drawn. Read-outs that look alike come from different tables or passages of the source.
How the values were obtained:
Assay in all cases: Minimum Inhibitory Concentration (MIC), agar dilution, standard strains
Type in all cases: cell-based
[1] = test system: E. faecalis 2168; details: for MIC: read-out: Minimum Inhibitory Concentration (MIC), E. faecalis 2168
Description: (§1) Minimum Inhibitory Concentration (MIC)
(§2) The effectiveness of the compound according to the present invention was determined by obtaining Minumum Inhibitory Concentration (MIC) of the compounds prepared by the above examples (Compounds I-1˜I-6, I-10) and Vancomycin, which is the known compound having a potent activity against gram-positive strains, as the control drug against the standard strains. Specifically, Minimum Inhibitory Concentration was obtained by diluting the test compounds according to a double dilution method, dispersing them in Mueller-Hinton agar medium, inoculating each of the test strains having 10^7 cfu (colony forming unit) per ml in an amount of 2 μl to the medium and then incubating them at 37° C. for 20 hours. From the results of Minimum Inhibitory Concentration test, it can be seen that the compound according to the present invention has a good activity against major pathogenic microorganisms, which cause hospital infection, including MRSA strains.

[2] = test system: S. aureus 77; details: for MIC: read-out: Minimum Inhibitory Concentration (MIC), S. aureus 77
Description: as §1, §2

[3] = test system: S. aureus K311; details: for MIC: Staphylococcus aureus, read-out: Minimum Inhibitory Concentration (MIC), S. aureus K311
Description: as §1, §2

[4] = test system: S. aureus giorgio; details: for MIC: Staphylococcus aureus, read-out: Minimum Inhibitory Concentration (MIC), S. aureus giorgio
Description: as §1, §2

[5] = test system: S. epidermidis Q033; details: for MIC: Staphylococcus epidermidis, read-out: Minimum Inhibitory Concentration (MIC), S. epidermidis Q033
Description: as §1, §2

[6] = Enterococcus faecalis, 2168, Mueller-Hinton agar, double dilution, 37° C. for 20 hours
[7] = Staphylococcus aureus, 77, Mueller-Hinton agar, double dilution, 37° C. for 20 hours
[8] = K311, Mueller-Hinton agar, double dilution, 37° C. for 20 hours
[9] = Mueller-Hinton agar, double dilution, 37° C. for 20 hours
[10] = Q033, Mueller-Hinton agar, double dilution, 37° C. for 20 hours

SMILES | MIC [1, 6] [µg/mL] | MIC [2, 7] [µg/mL] | MIC [3, 8] [µg/mL] | MIC [4, 9] [µg/mL] | MIC [5, 10] [µg/mL] | also measured
Nc1cc(S/C=C/C2=C(C(=O)O)N3C(=O)[C@@H](NC(=O)C(=NO)c4nc(N)sc4Cl)[C@H]3SC2)nc(N)n1 [Compound I-2, (6R,7R)-7-{[2-(2-amino-5-chloro-1,3-thiazol-4-yl)-2-(hydroxyimino)acetyl]amino}-3-{(E)-2-[(2,6-diamino-4-pyrimidinyl)sulfanyl]ethenyl}-8-oxo-5-thia-1-azabicyclo[4.2.0]oct-2-ene-2-carboxylic acid] | 1 (≈ 1.75 µM) | 1 (≈ 1.75 µM) | 1 (≈ 1.75 µM) | 0.13 (≈ 0.228 µM) | 0.063 (≈ 0.111 µM) | –
Nc1nc(C(=NO)C(=O)N[C@@H]2C(=O)N3C(C(=O)O)=C(/C=C/Sc4nc(N)c5cn[nH]c5n4)CS[C@H]23)c(Cl)s1 [Compound I-6, (6R,7R)-7-{[2-(2-amino-5-chloro-1,3-thiazol-4-yl)-2-(hydroxyimino)acetyl]amino}-3-{(E)-2-[(4-amino-1H-pyrazolo[3,4-d]pyrimidin-6-yl)sulfanyl]ethenyl}-8-oxo-5-thia-1-azabicyclo[4.2.0]oct-2-ene-2-carboxylic acid] | 0.5 (≈ 0.84 µM) | 0.5 (≈ 0.84 µM) | 0.5 (≈ 0.84 µM) | 0.13 (≈ 0.218 µM) | 0.031 (≈ 0.0521 µM) | –
CN[C@H](CC(C)C)C(=O)N[C@H]1C(=O)N[C@@H](CC(N)=O)C(=O)N[C@H]2C(=O)N[C@H]3C(=O)N[C@H](C(=O)N[C@H](C(=O)O)c4cc(O)cc(O)c4-c4cc3ccc4O)[C@H](O)c3ccc(c(Cl)c3)Oc3cc2cc(c3O[C@@H]2O[C@H](CO)[C@@H](O)[C@H](O)[C@H]2O[C@H]2C[C@](C)(N)[C@H](O)[C@H](C)O2)Oc2ccc(cc2Cl)[C@H]1O [Vancomycin, reference compound] | – | – | – | – | – | MIC ([1]; Enterococcus faecalis, 2168, 20 h): > 64 µg/mL; MIC ([2]; Staphylococcus aureus, 77, 20 h): 1 µg/mL (≈ 0.69 µM); MIC ([3]; K311, 20 h): 2 µg/mL (≈ 1.38 µM); MIC ([4]; 20 h): 1 µg/mL (≈ 0.69 µM); MIC ([5]; Q033, 20 h): 1 µg/mL (≈ 0.69 µM)
Nc1nc(O)cc(S/C=C/C2=C(C(=O)O)N3C(=O)[C@@H](NC(=O)C(=NO)c4nc(N)sc4Cl)[C@H]3SC2)n1 [Compound I-3, (6R,7R)-7-{[2-(2-amino-5-chloro-1,3-thiazol-4-yl)-2-(hydroxyimino)acetyl]amino}-3-{(E)-2-[(2-amino-6-hydroxy-4-pyrimidinyl)sulfanyl]ethenyl}-8-oxo-5-thia-1-azabicyclo[4.2.0]oct-2-ene-2-carboxylic acid] | 0.5 (≈ 0.876 µM) | 0.5 (≈ 0.876 µM) | 0.5 (≈ 0.876 µM) | 0.13 (≈ 0.228 µM) | 0.063 (≈ 0.11 µM) | –
Nc1cc(S/C=C/C2=C(C(=O)O)N3C(=O)[C@@H](NC(=O)C(=NOC4CCCC4)c4nc(N)sc4Cl)[C@H]3SC2)nc(N)n1 [Compound I-10, (6R,7R)-7-({2-(2-amino-5-chloro-1,3-thiazol-4-yl)-2-[(cyclopentyloxy)imino]acetyl}amino)-3-{(E)-2-[(2,6-diamino-4-pyrimidinyl)sulfanyl]ethenyl}-8-oxo-5-thia-1-azabicyclo[4.2.0]oct-2-ene-2-carboxylic acid] | 4 (≈ 6.27 µM) | 2 (≈ 3.13 µM) | 2 (≈ 3.13 µM) | 0.5 (≈ 0.784 µM) | 0.063 (≈ 0.0987 µM) | –
NCCSc1nccc(S/C=C/C2=C(C(=O)O)N3C(=O)[C@@H](NC(=O)C(=NO)c4nc(N)sc4Cl)[C@H]3SC2)n1 [Compound I-4, (6R,7R)-7-{[2-(2-amino-5-chloro-1,3-thiazol-4-yl)-2-(hydroxyimino)acetyl]amino}-3-{(E)-2-({2-[(2-aminoethyl)sulfanyl]-4-pyrimidinyl}sulfanyl)ethenyl}-8-oxo-5-thia-1-azabicyclo[4.2.0]oct-2-ene-2-carboxylic acid] | 1 (≈ 1.63 µM) | 1 (≈ 1.63 µM) | 2 (≈ 3.25 µM) | 0.25 (≈ 0.406 µM) | 0.13 (≈ 0.211 µM) | –
Nc1cc(S/C=C/C2=C(C(=O)O)N3C(=O)[C@@H](NC(=O)C(=NO)c4nc(N)sc4Cl)[C@H]3SC2)nc(O)n1 [Compound I-1, (6R,7R)-7-{[2-(2-amino-5-chloro-1,3-thiazol-4-yl)-2-(hydroxyimino)acetyl]amino}-3-{(E)-2-[(6-amino-2-hydroxy-4-pyrimidinyl)sulfanyl]ethenyl}-8-oxo-5-thia-1-azabicyclo[4.2.0]oct-2-ene-2-carboxylic acid] | 0.5 (≈ 0.876 µM) | 0.25 (≈ 0.438 µM) | 0.5 (≈ 0.876 µM) | 0.13 (≈ 0.228 µM) | 0.063 (≈ 0.11 µM) | –
Cc1cc(S/C=C/C2=C(C(=O)O)N3C(=O)[C@@H](NC(=O)C(=NO)c4nc(N)sc4Cl)[C@H]3SC2)nc(SCCN)n1 [Compound I-5] | – | – | – | – | – | Minimum Inhibitory Concentration (MIC), E. faecalis 2168 [1, 9]: 0.25 µg/mL; Minimum Inhibitory Concentration (MIC), S. aureus 77 [2, 9]: 1 µg/mL; Minimum Inhibitory Concentration (MIC), S. aureus K311 [3, 9]: 2 µg/mL; Minimum Inhibitory Concentration (MIC), S. aureus giorgio [4, 9]: 0.25 µg/mL; Minimum Inhibitory Concentration (MIC), S. epidermidis Q033 [5, 9]: 0.13 µg/mL

— patent US20050267092A1, “Novel cephalosporin compounds and process for preparing the same” (priority 2002, published 2005)
